Where two headings read alike, the source gives them in different places.
Experiments:
Set-up in all cases: species or system Acyrthosiphon pisum
[1] = target: T1, A. pisum native nAChRs, [125I]-alpha-bungarotoxin binding sites (alpha-Bgt-sensitive); conditions: PBS pH 7.2, 0.1% BSA, room temperature, 4 h, low-affinity site, Cheng-Prusoff, table header prints nM, text and IC50 support µM
T1 construct: gene Apisumα1

[2] = target: T2, A. pisum native nAChRs, [3H]-imidacloprid binding sites (alpha-Bgt-insensitive); assay: [3H]-IMI saturation binding, filtration; conditions: 10 mM Tris-HCl pH 7.4, room temperature, 4 h; high-affinity site of two-site fit; labelled compound; read-out: [^3H]-IMI / Kd (nM) / assay level
T2 construct: gene Apisumα1
Text: [3H]-IMI saturation binding, filtration on A. pisum native nAChRs, [3H]-imidacloprid binding sites (alpha-Bgt-insensitive)

[3] = target: T2, A. pisum native nAChRs, [3H]-imidacloprid binding sites (alpha-Bgt-insensitive); assay: [3H]-IMI competition binding, filtration; conditions: 25 nM [3H]-IMI, 10 mM Tris-HCl pH 7.4, room temperature, 4 h, low-affinity site; for Ki: Cheng-Prusoff, read-out: [^3H]-IMI / % of high affinity / Ki; for IC50: read-out: [^3H]-IMI / Bmax (fmol/mg) / IC50
Text: [3H]-IMI competition binding, filtration on A. pisum native nAChRs, [3H]-imidacloprid binding sites (alpha-Bgt-insensitive)

[4] = apparent Ki, possibly not strictly competitive
[5] = possibly not strictly competitive

O=[N+]([O-])N=C1NCCN1Cc1ccc(Cl)nc1 [imidacloprid]
Ki ([1]; 0.6 nM [125I]-alpha-Bgt): 14600 ± 1130 nM
Kd [2]: 0.16 ± 0.04 nM
Ki [3]: 38.1 ± 6.88 nM
IC50 [3]: 61 ± 11 nM

CN/C(=N\[N+](=O)[O-])NCc1cnc(Cl)s1 [clothianidin]
Ki ([1]; 0.08 nM [125I]-alpha-Bgt): 180 ± 50 nM
Ki [3, 4]: 127 ± 42.5 nM
IC50 [3, 5]: 203 ± 68 nM

CN1COCN(Cc2cnc(Cl)s2)C1=N[N+](=O)[O-] [thiamethoxam]
Ki ([1]; 0.08 nM [125I]-alpha-Bgt): 1530 ± 650 nM
Ki [3, 4]: 1050 ± 63.1 nM
IC50 [3, 5]: 1680 ± 101 nM

— publication PMC4011867 (PLoS ONE, 2014)
